Experiments:
[1] = test system: Tyrosine-protein kinase ABL1 (Homo sapiens), P00519 [F317I]; settings: Compound concentration 1000.0 nM
[2] = test system: Tyrosine-protein kinase ABL1 (Homo sapiens), P00519 [Q252H]; settings: Compound concentration 1000.0 nM
[3] = biological target: RAC-beta serine/threonine-protein kinase (Homo sapiens) (UniProt P31751); settings: Compound concentration 1000.0 nM
[4] = biological target: Aurora kinase A (Homo sapiens) (UniProt O14965); settings: Compound concentration 1000.0 nM
[5] = biological target: Bone morphogenetic protein receptor type-1A (Homo sapiens) (UniProt P36894); settings: Compound concentration 1000.0 nM
[6] = biological target: Bone morphogenetic protein receptor type-1B (Homo sapiens) (UniProt O00238); settings: Compound concentration 1000.0 nM
[7] = test system: Serine/threonine-protein kinase B-raf (Homo sapiens), P15056 [V600E]; settings: Compound concentration 1000.0 nM
[8] = biological target: Serine/threonine-protein kinase BRSK1 (Homo sapiens) (UniProt Q8TDC3); settings: Compound concentration 1000.0 nM
[9] = biological target: Macrophage colony-stimulating factor 1 receptor (Homo sapiens) (UniProt P07333); settings: Compound concentration 1000.0 nM
[10] = biological target: Casein kinase I isoform alpha (Homo sapiens) (UniProt P48729); settings: Compound concentration 1000.0 nM
[11] = biological target: Death-associated protein kinase 3 (Homo sapiens) (UniProt O43293); settings: Compound concentration 1000.0 nM
[12] = biological target: Myotonin-protein kinase (Homo sapiens) (UniProt Q09013); settings: Compound concentration 1000.0 nM
[13] = biological target: Serine/threonine-protein kinase 17A (Homo sapiens) (UniProt Q9UEE5); settings: Compound concentration 1000.0 nM
[14] = test system: Receptor-type tyrosine-protein kinase FLT3 (Homo sapiens), P36888 [D835Y]; settings: Compound concentration 1000.0 nM
[15] = biological target: G protein-coupled receptor kinase 4 (Homo sapiens) (UniProt P32298); settings: Compound concentration 1000.0 nM
[16] = biological target: Insulin receptor (Homo sapiens) (UniProt P06213); settings: Compound concentration 1000.0 nM
[17] = biological target: Mast/stem cell growth factor receptor Kit (Homo sapiens) (UniProt P10721); settings: Compound concentration 1000.0 nM
[18] = test system: Mast/stem cell growth factor receptor Kit (Homo sapiens), P10721 [D816H]; settings: Compound concentration 1000.0 nM
[19] = test system: Mast/stem cell growth factor receptor Kit (Homo sapiens), P10721 [V559D,T670I]; settings: Compound concentration 1000.0 nM
[20] = biological target: Leukocyte tyrosine kinase receptor (Homo sapiens) (UniProt P29376); settings: Compound concentration 1000.0 nM
[21] = biological target: Serine/threonine-protein kinase MARK2 (Homo sapiens) (UniProt Q7KZI7); settings: Compound concentration 1000.0 nM
[22] = biological target: Dual specificity mitogen-activated protein kinase kinase 7 (Homo sapiens) (UniProt O14733); settings: Compound concentration 1000.0 nM
[23] = biological target: MAP kinase-interacting serine/threonine-protein kinase 1 (Homo sapiens) (UniProt Q9BUB5); settings: Compound concentration 1000.0 nM
[24] = biological target: Myosin light chain kinase (Homo sapiens) (UniProt Q32MK0); settings: Compound concentration 1000.0 nM
[25] = biological target: Mitogen-activated protein kinase kinase kinase 10 (Homo sapiens) (UniProt Q02779); settings: Compound concentration 1000.0 nM
[26] = biological target: Serine/threonine-protein kinase MRCK alpha (Homo sapiens) (UniProt Q5VT25); settings: Compound concentration 1000.0 nM
[27] = biological target: Serine/threonine-protein kinase 26 (Homo sapiens) (UniProt Q9P289); settings: Compound concentration 1000.0 nM
[28] = biological target: Muscle, skeletal receptor tyrosine-protein kinase (Homo sapiens) (UniProt O15146); settings: Compound concentration 1000.0 nM
[29] = biological target: Serine/threonine-protein kinase Nek4 (Homo sapiens) (UniProt P51957); settings: Compound concentration 1000.0 nM
[30] = biological target: Serine/threonine-protein kinase Nek5 (Homo sapiens) (UniProt Q6P3R8); settings: Compound concentration 1000.0 nM
[31] = biological target: Serine/threonine-protein kinase PAK 4 (Homo sapiens) (UniProt O96013); settings: Compound concentration 1000.0 nM
[32] = biological target: Phosphorylase b kinase gamma catalytic chain, skeletal muscle/heart isoform (Homo sapiens) (UniProt Q16816); settings: Compound concentration 1000.0 nM
[33] = test system: Phosphatidylinositol 4,5-bisphosphate 3-kinase catalytic subunit alpha isoform (Homo sapiens), P42336 [E542K]; settings: Compound concentration 1000.0 nM
[34] = biological target: Phosphatidylinositol 4-kinase beta (Homo sapiens) (UniProt Q9UBF8); settings: Compound concentration 1000.0 nM
[35] = biological target: Proto-oncogene tyrosine-protein kinase receptor Ret (Homo sapiens) (UniProt P07949); settings: Compound concentration 1000.0 nM
[36] = test system: Proto-oncogene tyrosine-protein kinase receptor Ret (Homo sapiens), P07949 [V804M]; settings: Compound concentration 1000.0 nM
[37] = biological target: Ribosomal protein S6 kinase alpha-1 (Homo sapiens) (UniProt Q15418); settings: Compound concentration 1000.0 nM
[38] = biological target: Ribosomal protein S6 kinase alpha-6 (Homo sapiens) (UniProt Q9UK32); settings: Compound concentration 1000.0 nM
[39] = biological target: Serine/threonine-protein kinase 35 (Homo sapiens) (UniProt Q8TDR2); settings: Compound concentration 1000.0 nM
[40] = biological target: Serine/threonine-protein kinase TAO2 (Homo sapiens) (UniProt Q9UL54); settings: Compound concentration 1000.0 nM
[41] = biological target: Serine/threonine-protein kinase WNK2 (Homo sapiens) (UniProt Q9Y3S1); settings: Compound concentration 1000.0 nM
[42] = biological target: D(3) dopamine receptor (Homo sapiens) (UniProt P35462); settings: Compound concentration 10.0 uM
[43] = biological target: D(1B) dopamine receptor (Homo sapiens) (UniProt P21918); settings: Compound concentration 10.0 uM
[44] = biological target: Muscarinic acetylcholine receptor M2 (Homo sapiens) (UniProt P08172); settings: Compound concentration 10.0 uM
[45] = biological target: Sigma intracellular receptor 2 (Homo sapiens) (UniProt Q5BJF2); settings: Compound concentration 10.0 uM
Chain of Sigma intracellular receptor 2 (Homo sapiens) (Q5BJF2 whole entry): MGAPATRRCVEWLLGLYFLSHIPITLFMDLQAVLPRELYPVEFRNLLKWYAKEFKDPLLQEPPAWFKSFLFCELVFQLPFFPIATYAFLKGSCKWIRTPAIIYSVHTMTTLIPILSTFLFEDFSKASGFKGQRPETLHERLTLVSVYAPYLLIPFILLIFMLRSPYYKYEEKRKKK

Chain of Serine/threonine-protein kinase TAO2 (Homo sapiens) (Q9UL54 whole entry): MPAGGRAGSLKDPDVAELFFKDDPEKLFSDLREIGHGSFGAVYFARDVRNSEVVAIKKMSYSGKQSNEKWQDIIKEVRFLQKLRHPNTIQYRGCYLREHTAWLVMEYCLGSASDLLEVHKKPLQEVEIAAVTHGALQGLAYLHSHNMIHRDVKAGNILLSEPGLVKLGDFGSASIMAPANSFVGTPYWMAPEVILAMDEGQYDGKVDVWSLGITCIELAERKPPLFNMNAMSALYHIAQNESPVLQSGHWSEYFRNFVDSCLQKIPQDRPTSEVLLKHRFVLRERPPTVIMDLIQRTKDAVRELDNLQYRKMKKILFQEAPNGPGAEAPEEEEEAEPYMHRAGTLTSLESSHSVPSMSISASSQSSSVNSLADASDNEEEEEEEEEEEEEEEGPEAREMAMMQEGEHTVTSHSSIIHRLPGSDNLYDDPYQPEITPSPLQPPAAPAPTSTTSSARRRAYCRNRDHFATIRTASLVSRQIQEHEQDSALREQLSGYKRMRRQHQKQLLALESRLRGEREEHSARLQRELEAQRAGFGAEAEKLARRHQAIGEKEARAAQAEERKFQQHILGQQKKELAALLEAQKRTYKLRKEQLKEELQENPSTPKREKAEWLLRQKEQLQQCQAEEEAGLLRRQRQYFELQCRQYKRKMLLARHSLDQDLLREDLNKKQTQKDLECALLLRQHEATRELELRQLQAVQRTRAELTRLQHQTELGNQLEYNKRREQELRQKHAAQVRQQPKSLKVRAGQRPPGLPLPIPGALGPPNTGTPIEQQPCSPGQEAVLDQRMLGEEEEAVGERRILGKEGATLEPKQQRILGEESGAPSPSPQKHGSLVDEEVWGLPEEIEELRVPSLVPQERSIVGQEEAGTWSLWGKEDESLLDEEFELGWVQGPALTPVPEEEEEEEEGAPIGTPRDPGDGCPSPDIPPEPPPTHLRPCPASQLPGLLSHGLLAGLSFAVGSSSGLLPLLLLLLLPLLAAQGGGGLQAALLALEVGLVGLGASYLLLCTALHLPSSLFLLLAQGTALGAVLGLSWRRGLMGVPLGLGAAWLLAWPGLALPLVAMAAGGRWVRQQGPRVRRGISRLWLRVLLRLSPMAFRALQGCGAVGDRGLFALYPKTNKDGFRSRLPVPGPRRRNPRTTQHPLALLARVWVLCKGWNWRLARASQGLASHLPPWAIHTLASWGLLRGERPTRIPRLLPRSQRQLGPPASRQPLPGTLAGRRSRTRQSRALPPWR
Chain of Serine/threonine-protein kinase MARK2 (Homo sapiens) (Q7KZI7 whole entry): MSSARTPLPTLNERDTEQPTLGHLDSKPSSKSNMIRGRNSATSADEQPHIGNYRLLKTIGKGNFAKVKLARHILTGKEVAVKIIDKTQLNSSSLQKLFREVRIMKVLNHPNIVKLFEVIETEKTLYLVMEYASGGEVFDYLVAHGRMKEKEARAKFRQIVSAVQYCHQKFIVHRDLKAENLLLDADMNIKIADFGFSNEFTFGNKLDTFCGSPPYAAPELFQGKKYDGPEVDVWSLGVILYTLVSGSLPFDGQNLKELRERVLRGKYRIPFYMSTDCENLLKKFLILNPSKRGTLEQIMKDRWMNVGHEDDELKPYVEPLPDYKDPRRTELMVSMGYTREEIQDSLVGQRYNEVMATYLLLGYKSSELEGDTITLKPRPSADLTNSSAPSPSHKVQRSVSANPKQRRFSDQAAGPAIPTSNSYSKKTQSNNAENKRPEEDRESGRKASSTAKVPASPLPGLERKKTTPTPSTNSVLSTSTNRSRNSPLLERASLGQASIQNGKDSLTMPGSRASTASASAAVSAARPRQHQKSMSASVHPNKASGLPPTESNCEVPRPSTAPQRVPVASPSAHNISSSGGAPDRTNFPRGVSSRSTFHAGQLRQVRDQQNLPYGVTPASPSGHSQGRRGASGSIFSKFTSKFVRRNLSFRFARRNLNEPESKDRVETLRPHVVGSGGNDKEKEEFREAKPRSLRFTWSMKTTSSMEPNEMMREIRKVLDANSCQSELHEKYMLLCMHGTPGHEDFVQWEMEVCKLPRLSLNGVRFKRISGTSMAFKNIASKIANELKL
Chain of Serine/threonine-protein kinase WNK2 (Homo sapiens) (Q9Y3S1 whole entry): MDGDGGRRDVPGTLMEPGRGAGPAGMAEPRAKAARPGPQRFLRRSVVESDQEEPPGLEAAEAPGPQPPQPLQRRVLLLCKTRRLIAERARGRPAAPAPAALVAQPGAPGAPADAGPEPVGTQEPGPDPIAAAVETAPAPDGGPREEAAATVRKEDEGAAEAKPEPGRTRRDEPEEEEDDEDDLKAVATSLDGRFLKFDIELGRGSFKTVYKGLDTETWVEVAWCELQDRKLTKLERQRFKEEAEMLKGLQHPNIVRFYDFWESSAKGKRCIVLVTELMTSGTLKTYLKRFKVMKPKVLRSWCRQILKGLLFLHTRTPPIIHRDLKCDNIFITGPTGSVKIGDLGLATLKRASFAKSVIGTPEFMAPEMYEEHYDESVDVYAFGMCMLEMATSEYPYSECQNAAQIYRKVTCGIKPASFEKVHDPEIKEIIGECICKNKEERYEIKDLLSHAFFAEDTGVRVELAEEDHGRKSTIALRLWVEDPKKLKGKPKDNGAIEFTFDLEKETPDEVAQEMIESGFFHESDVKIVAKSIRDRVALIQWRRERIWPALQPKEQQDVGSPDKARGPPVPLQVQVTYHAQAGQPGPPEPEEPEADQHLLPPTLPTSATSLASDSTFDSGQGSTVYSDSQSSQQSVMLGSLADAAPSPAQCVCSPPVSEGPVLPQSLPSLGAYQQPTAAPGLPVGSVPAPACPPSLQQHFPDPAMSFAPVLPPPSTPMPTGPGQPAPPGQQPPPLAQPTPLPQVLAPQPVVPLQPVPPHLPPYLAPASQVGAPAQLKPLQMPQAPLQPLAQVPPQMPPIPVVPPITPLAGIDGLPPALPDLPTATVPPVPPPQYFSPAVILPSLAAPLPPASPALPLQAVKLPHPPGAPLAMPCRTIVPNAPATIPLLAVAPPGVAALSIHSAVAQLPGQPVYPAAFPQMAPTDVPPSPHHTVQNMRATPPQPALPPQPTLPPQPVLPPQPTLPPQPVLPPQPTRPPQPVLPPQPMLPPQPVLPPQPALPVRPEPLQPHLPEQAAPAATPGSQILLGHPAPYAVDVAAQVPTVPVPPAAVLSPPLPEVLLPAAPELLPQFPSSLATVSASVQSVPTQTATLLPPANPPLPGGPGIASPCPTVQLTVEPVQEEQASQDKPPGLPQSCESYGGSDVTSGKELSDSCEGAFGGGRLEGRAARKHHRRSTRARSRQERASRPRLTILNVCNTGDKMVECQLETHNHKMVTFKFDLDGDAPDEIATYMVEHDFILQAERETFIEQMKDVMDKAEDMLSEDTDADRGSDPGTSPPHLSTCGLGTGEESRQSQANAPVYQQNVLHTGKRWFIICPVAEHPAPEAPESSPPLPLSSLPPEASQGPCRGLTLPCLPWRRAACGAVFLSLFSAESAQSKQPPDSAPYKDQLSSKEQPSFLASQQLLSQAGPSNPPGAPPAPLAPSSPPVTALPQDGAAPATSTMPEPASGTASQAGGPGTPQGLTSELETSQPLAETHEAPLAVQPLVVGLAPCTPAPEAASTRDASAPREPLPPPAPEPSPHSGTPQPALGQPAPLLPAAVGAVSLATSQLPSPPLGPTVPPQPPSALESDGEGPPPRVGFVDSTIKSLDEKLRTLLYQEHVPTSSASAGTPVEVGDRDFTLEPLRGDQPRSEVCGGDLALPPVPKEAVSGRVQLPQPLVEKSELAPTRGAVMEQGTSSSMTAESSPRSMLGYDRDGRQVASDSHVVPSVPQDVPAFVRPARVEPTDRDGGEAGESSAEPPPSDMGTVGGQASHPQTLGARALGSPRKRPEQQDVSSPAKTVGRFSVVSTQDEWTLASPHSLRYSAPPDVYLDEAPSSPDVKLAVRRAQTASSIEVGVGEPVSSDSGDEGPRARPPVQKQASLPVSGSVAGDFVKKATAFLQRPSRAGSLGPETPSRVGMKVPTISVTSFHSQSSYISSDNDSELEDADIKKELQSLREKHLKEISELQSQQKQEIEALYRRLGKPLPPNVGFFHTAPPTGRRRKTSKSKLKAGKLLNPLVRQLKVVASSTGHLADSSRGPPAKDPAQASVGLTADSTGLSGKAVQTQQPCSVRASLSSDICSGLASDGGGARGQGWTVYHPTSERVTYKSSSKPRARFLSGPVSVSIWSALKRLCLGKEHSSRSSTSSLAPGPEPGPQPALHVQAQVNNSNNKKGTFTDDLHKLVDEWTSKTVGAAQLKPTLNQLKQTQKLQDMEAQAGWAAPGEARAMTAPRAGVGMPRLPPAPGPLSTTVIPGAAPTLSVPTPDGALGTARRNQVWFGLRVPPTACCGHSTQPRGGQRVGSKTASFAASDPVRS
Chain of RAC-beta serine/threonine-protein kinase (Homo sapiens) (P31751 whole entry): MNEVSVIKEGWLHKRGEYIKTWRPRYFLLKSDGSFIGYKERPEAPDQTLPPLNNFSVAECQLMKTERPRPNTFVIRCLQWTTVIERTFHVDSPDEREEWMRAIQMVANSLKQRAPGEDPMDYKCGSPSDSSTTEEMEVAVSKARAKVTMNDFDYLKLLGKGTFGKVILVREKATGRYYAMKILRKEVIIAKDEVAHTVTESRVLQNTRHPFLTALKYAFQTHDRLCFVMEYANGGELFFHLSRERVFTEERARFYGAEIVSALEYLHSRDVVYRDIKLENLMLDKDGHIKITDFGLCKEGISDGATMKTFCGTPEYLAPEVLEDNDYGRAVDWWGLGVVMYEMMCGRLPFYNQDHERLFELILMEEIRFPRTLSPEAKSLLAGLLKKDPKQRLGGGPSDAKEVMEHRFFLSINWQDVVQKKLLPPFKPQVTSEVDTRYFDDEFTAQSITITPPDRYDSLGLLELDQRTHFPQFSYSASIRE

C[C@H](c1cccc(C#N)c1)n1cc(Cl)cc(C(N)=O)c1=N [(R)-9s]
residual activity [1]: 89% | residual activity [2]: 84% | residual activity [3]: 100% | residual activity [4]: 97% | residual activity [5]: 100% | residual activity [6]: 94% | residual activity [7]: 100% | residual activity [8]: 68% | residual activity [9]: 100% | residual activity [10]: 86% | residual activity [11]: 100% | residual activity [12]: 100% | residual activity [13]: 85% | residual activity [14]: 96% | residual activity [15]: 100% | residual activity [16]: 97% | residual activity [17]: 87% | residual activity [18]: 79% | residual activity [19]: 100% | residual activity [20]: 99% | residual activity [21]: 100% | residual activity [22]: 72% | residual activity [23]: 63% | residual activity [24]: 94% | residual activity [25]: 100% | residual activity [26]: 100% | residual activity [27]: 88% | residual activity [28]: 100% | residual activity [29]: 100% | residual activity [30]: 93% | residual activity [31]: 100% | residual activity [32]: 100% | residual activity [33]: 77% | residual activity [34]: 100% | residual activity [35]: 94% | residual activity [36]: 100% | residual activity [37]: 100% | residual activity [38]: 100% | residual activity [39]: 88% | residual activity [40]: 82% | residual activity [41]: 58% | inhibition [42]: 7.03% | inhibition [43]: 10.7% | inhibition [44]: -3.2% | inhibition [45]: 53.6%

C[C@@H](c1cccc(C#N)c1)n1cc(Cl)cc(C(N)=O)c1=N [(S)-9s]
residual activity [1]: 100% | residual activity [2]: 78% | residual activity [3]: 93% | residual activity [4]: 96% | residual activity [5]: 100% | residual activity [6]: 89% | residual activity [7]: 95% | residual activity [8]: 93% | residual activity [9]: 100% | residual activity [10]: 81% | residual activity [11]: 100% | residual activity [12]: 100% | residual activity [13]: 89% | residual activity [14]: 97% | residual activity [15]: 99% | residual activity [16]: 100% | residual activity [17]: 93% | residual activity [18]: 100% | residual activity [19]: 100% | residual activity [20]: 94% | residual activity [21]: 100% | residual activity [22]: 99% | residual activity [23]: 86% | residual activity [24]: 98% | residual activity [25]: 77% | residual activity [26]: 100% | residual activity [27]: 68% | residual activity [28]: 100% | residual activity [29]: 96% | residual activity [30]: 100% | residual activity [31]: 100% | residual activity [32]: 100% | residual activity [33]: 89% | residual activity [34]: 85% | residual activity [35]: 100% | residual activity [36]: 89% | residual activity [37]: 100% | residual activity [38]: 100% | residual activity [39]: 100% | residual activity [40]: 84% | residual activity [41]: 67% | inhibition [42]: -3.38% | inhibition [43]: 16.1% | inhibition [44]: 0.11% | inhibition [45]: 20.7%

From ChEMBL document CHEMBL4507301 (2021)
